In patent US20120029177A1, “HETEROCYCLE-AMINO ACID DERIVATIVES FOR TARGETING CANCER TISSUE AND RADIOACTIVE OR NON-RADIOACTIVE LABELED COMPOUNDS THEREOF” (SNU R&DB FOUNDATION, priority 2009, published 2012):

Columns and labels:
[1] = system: CT-26 cells; assay: In vitro cell uptake, CT-26 (FIG. 1b); format: cell-based, mouse; details: controls ^68Ga-DO2A, ^68Ga-DO3A
Protocol: (§1) Human colon cancer cell line SNU-C4 was purchased from Korea Cell Line Bank (KCLB). Human thyroid cell line ARO, human liver cancer cell line Hep3B, human glioma cell line U251MG and U87MG, and mouse colon cell line CT-26 were purchased from American Type Culture Collection (ATCC). SNU-C4 and ARO were culture in RPMI1640 (Welgene Inc., Korea) and Hep3B, U251 MG, U87MG, and CT-26 were cultured in DMEM (Welgene Inc., Korea). Penicillin, streptomycin and amphotericin B (10,000 IU/mL, 10 mg/mL and 25 μg/mL, respectively, Mediatech Inc., U.S.A.) 1% mixture and fetal bovine serum (Welgene Inc., Korea) were added to all cell culture media. Cell culture was done in 37° C. incubator with supply of 5% CO2.
(§2) About 1.8×10^5 cells/mL CT-26 and 1.2×10^5 cells/mL U87MG were put into 24-well incubation plate and incubated for 20 hr. When the each well was about 80% confluent with cells, 296 kBq/0.5 mL of ^68Ga labeled agent was added to each well. Culture supernatants were discarded at each time point and cells were washed with ice-cooled Hank's balanced salt solution (HBSS, pH7.3, Gibco, U.S.A.) 2 times. The cells were dissolved by 0.5% sodium dodecylsulfate (SDS), recovered and counted using a gamma counter (Packard, Can berra Co., U.S.A.). Total protein amount in each sample was measured by bicinchonic acid (BCA, Pierce, U.S.A.) method.

[2] = system: SNU-C4 xenografted nude mice; assay: PET imaging of tumor xenografted mice; format: in vivo, mouse; details: PET at 1 and 2 hr post-injection, FIG. 2
Protocol: Human colon cancer cell line SNU-C4 was cultured in RPMI1640 media containing 10% fetal bovine serum and harvested using trypsin. The cells were washed using 10 mL PBS and centrifugation at 3,000 rpm. Each nude mouse was injected with 2×10^5 cells/0.1 mL on the right shoulder subcutaneously. On 14 days post-injection, each 10 μCi/0.1 mL of ^68Ga labeled agent was injected into the xenografted mice through the tail vein. The injected mice were anesthetized using 2% isoflurane, PET images were obtained at 1 and 2 hr post-injection using rodent R4, microPET scanner (Concorde Microsystem Inc.). The images were analyzed using ASIPro software (Concorde Microsystem Inc.).

[3] = system: SNU-C4 xenografted nude mice; assay: Biodistribution study in SNU-C4 xenografted nude mice after intravenous injection; format: in vivo, mouse; details: for % ID/g Tumor: SNU-C4 tumor; for tumor uptake compared with the control heterocyclic compound (in words): SNU-C4 xenografted nude mice, 10 min to 2 hr
Protocol: Human colon cancer cell line SNU-C4 was cultured in RPMI1640 media containing 10% fetal bovine serum and harvested using trypsin. The cells were washed using 10 mL PBS and centrifugation at 3,000 rpm. Each nude mouse was injected with 2×10^5 cells/0.1 mL on the right shoulder subcutaneously. On 13 days post-injection, each 10 μCi/0.1 mL of ^68Ga labeled agent was injected into the xenografted mice through the tail vein. The injected mice were sacrificed at 10 min, 30 min, 1 hr, and 2 hr, cancer, blood, muscle, heart, liver, spleen, stomach, intestine, and bone were obtained, weighed, and their radioactivities were counted. The results were expressed as percentages of injected dose per gram tissue (% ID/g).

[4] = system: U87MG cells; assay: In vitro cell uptake, U87MG (FIG. 1a); format: cell-based, human; details: controls ^68Ga-DOTA, ^68Ga-NOTA
Protocol: as §1, §2

[5] = system: Hep3B cells; assay: In vitro cell uptake, Hep3B (FIG. 1c); format: cell-based, human; details: control ^68Ga-NOTA
[6] = 10 min after intravenous injection
[7] = 30 min after intravenous injection
[8] = 1 hr after intravenous injection
[9] = 2 hr after intravenous injection

NC(CN1CCN(CC(=O)[O-])CCNCCN(CC(=O)[O-])CC1)C(=O)[O-].[68Ga+3] (stereo not drawn) [^68Ga-DO2A-ala]
tumor cell uptake versus control agents [1]: significantly increase tumor cell uptakes | tumor uptake in PET images [2]: high tumor uptakes | % ID/g Tumor [3, 6]: 2.88 ± 0.39 % ID/g | % ID/g Tumor [3, 7]: 2.30 ± 0.53 % ID/g | % ID/g Tumor [3, 8]: 1.05 ± 0.33 % ID/g | % ID/g Tumor [3, 9]: 1.08 ± 0.18 % ID/g | tumor uptake compared with the control heterocyclic compound (in words) [3]: always higher than that of ^68Ga-DO2A | % ID/g Blood [3, 6]: 7.75 ± 0.97 % ID/g | % ID/g Blood [3, 7]: 5.26 ± 1.36 % ID/g | % ID/g Blood [3, 8]: 3.12 ± 0.89 % ID/g | % ID/g Blood [3, 9]: 1.94 ± 0.24 % ID/g | % ID/g Bone [3, 6]: 2.60 ± 0.56 % ID/g | % ID/g Bone [3, 7]: 2.22 ± 0.49 % ID/g | % ID/g Bone [3, 8]: 1.57 ± 0.52 % ID/g | % ID/g Bone [3, 9]: 1.06 ± 0.52 % ID/g | % ID/g Heart [3, 6]: 1.98 ± 0.06 % ID/g | % ID/g Heart [3, 7]: 1.19 ± 0.34 % ID/g | % ID/g Heart [3, 8]: 0.79 ± 0.34 % ID/g | % ID/g Heart [3, 9]: 0.45 ± 0.10 % ID/g | % ID/g Intestine [3, 6]: 1.91 ± 0.33 % ID/g | % ID/g Intestine [3, 7]: 1.40 ± 0.38 % ID/g | % ID/g Intestine [3, 8]: 3.91 ± 2.96 % ID/g | % ID/g Intestine [3, 9]: 0.77 ± 0.03 % ID/g | % ID/g Kidney [3, 6]: 13.33 ± 4.30 % ID/g | % ID/g Kidney [3, 7]: 14.50 ± 8.89 % ID/g | % ID/g Kidney [3, 8]: 4.71 ± 2.26 % ID/g | % ID/g Kidney [3, 9]: 3.99 ± 0.54 % ID/g | % ID/g Liver [3, 6]: 1.74 ± 0.25 % ID/g | % ID/g Liver [3, 7]: 1.46 ± 0.27 % ID/g | % ID/g Liver [3, 8]: 1.39 ± 0.47 % ID/g | % ID/g Liver [3, 9]: 0.99 ± 0.04 % ID/g | % ID/g Lung [3, 6]: 8.45 ± 0.98 % ID/g | % ID/g Lung [3, 7]: 8.23 ± 2.41 % ID/g | % ID/g Lung [3, 8]: 4.21 ± 1.47 % ID/g | % ID/g Lung [3, 9]: 3.23 ± 0.49 % ID/g | % ID/g Muscle [3, 6]: 2.08 ± 0.43 % ID/g | % ID/g Muscle [3, 7]: 1.81 ± 0.77 % ID/g | % ID/g Muscle [3, 8]: 0.87 ± 0.40 % ID/g | % ID/g Muscle [3, 9]: 0.49 ± 0.08 % ID/g | % ID/g Spleen [3, 6]: 1.61 ± 0.26 % ID/g | % ID/g Spleen [3, 7]: 1.30 ± 0.29 % ID/g | % ID/g Spleen [3, 8]: 1.24 ± 0.34 % ID/g | % ID/g Spleen [3, 9]: 0.82 ± 0.09 % ID/g | % ID/g Stomach [3, 6]: 2.48 ± 0.62 % ID/g | % ID/g Stomach [3, 7]: 1.49 ± 0.62 % ID/g | % ID/g Stomach [3, 8]: 12.82 ± 7.46 % ID/g | % ID/g Stomach [3, 9]: 0.38 ± 0.05 % ID/g

NC(CNC(=O)CN1CCN(CC(=O)[O-])CCN(CC(=O)[O-])CC1)C(=O)[O-].[68Ga+3] (stereo not drawn) [^68Ga-NOTA-ala]
tumor cell uptake versus control agents [4]: significantly increase tumor cell uptakes | tumor cell uptake versus control agents [5]: significantly increase tumor cell uptakes | PET image quality [2]: the highest quality image | tumor uptake in PET images [2]: high tumor uptakes | % ID/g Tumor [3, 6]: 2.87 ± 0.58 % ID/g | % ID/g Tumor [3, 7]: 1.40 ± 0.43 % ID/g | % ID/g Tumor [3, 8]: 0.73 ± 0.25 % ID/g | % ID/g Tumor [3, 9]: 0.61 ± 0.34 % ID/g | tumor uptake compared with the control heterocyclic compound (in words) [3]: higher and increasing by time | tumor uptake relative to that of ^68Ga-NOTA ([3]; at 10 min): 1.07 times | tumor uptake relative to that of ^68Ga-NOTA ([3]; at 30 min): 1.09 times | tumor uptake relative to that of ^68Ga-NOTA ([3]; at 1 hr): 1.24 times | tumor uptake relative to that of ^68Ga-NOTA ([3]; at 2 hr): 1.42 times | % ID/g Blood [3, 6]: 7.46 ± 0.78 % ID/g | % ID/g Blood [3, 7]: 2.69 ± 0.59 % ID/g | % ID/g Blood [3, 8]: 0.73 ± 0.05 % ID/g | % ID/g Blood [3, 9]: 0.15 ± 0.03 % ID/g | % ID/g Bone [3, 6]: 2.22 ± 0.34 % ID/g | % ID/g Bone [3, 7]: 1.05 ± 0.35 % ID/g | % ID/g Bone [3, 8]: 0.47 ± 0.09 % ID/g | % ID/g Bone [3, 9]: 0.10 ± 0.07 % ID/g | % ID/g Heart [3, 6]: 2.13 ± 0.13 % ID/g | % ID/g Heart [3, 7]: 0.71 ± 0.17 % ID/g | % ID/g Heart [3, 8]: 0.26 ± 0.03 % ID/g | % ID/g Heart [3, 9]: 0.10 ± 0.05 % ID/g | % ID/g Intestine [3, 6]: 1.74 ± 0.22 % ID/g | % ID/g Intestine [3, 7]: 0.77 ± 0.19 % ID/g | % ID/g Intestine [3, 8]: 0.44 ± 0.07 % ID/g | % ID/g Intestine [3, 9]: 0.35 ± 0.11 % ID/g | % ID/g Kidney [3, 6]: 20.96 ± 7.35 % ID/g | % ID/g Kidney [3, 7]: 9.07 ± 1.68 % ID/g | % ID/g Kidney [3, 8]: 5.81 ± 0.57 % ID/g | % ID/g Kidney [3, 9]: 4.04 ± 0.63 % ID/g | % ID/g Liver [3, 6]: 2.08 ± 0.25 % ID/g | % ID/g Liver [3, 7]: 1.34 ± 0.22 % ID/g | % ID/g Liver [3, 8]: 1.05 ± 0.04 % ID/g | % ID/g Liver [3, 9]: 0.84 ± 0.18 % ID/g | % ID/g Muscle [3, 6]: 2.29 ± 0.52 % ID/g | % ID/g Muscle [3, 7]: 0.87 ± 0.33 % ID/g | % ID/g Muscle [3, 8]: 0.26 ± 0.05 % ID/g | % ID/g Muscle [3, 9]: 0.06 ± 0.04 % ID/g | % ID/g Spleen [3, 6]: 1.84 ± 0.10 % ID/g | % ID/g Spleen [3, 7]: 0.93 ± 0.14 % ID/g | % ID/g Spleen [3, 8]: 0.55 ± 0.07 % ID/g | % ID/g Spleen [3, 9]: 0.48 ± 0.11 % ID/g | % ID/g Stomach [3, 6]: 2.46 ± 0.31 % ID/g | % ID/g Stomach [3, 7]: 0.79 ± 0.17 % ID/g | % ID/g Stomach [3, 8]: 0.33 ± 0.08 % ID/g | % ID/g Stomach [3, 9]: 0.18 ± 0.05 % ID/g
